Source: PubChem BioAssay (NCI)
Several values for one entry are separate records, joined by “and”; a condition that tells them apart may be missing. Equal entries are not always repeated.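 Assay format: 96-well plates, 48-hour exposure. Abbreviation: GI50, concentration required for 50% inhibition of growth. TGI marks complete inhibition of growth.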

Assays:
Experiment in all cases: NCI tumour cell line growth inhibition, 48 h
HT29 colon = test system: HT29 colon
MOLT-4 leukemia = test system: MOLT-4 leukemia
OVCAR-3 ovarian = test system: OVCAR-3 ovarian
PC-3 prostate = test system: PC-3 prostate
RPMI-8226 leukemia = test system: RPMI-8226 leukemia
SF-268 CNS = test system: SF-268 CNS
SF-295 CNS = test system: SF-295 CNS
SK-MEL-2 melanoma = test system: SK-MEL-2 melanoma
SK-MEL-5 melanoma = test system: SK-MEL-5 melanoma
SR leukemia = test system: SR leukemia

COc1cc(C2c3cc4c(cc3[C@@H](Nc3ccc([N+](=O)[O-])cc3)C3COC(=O)[C@H]23)OCO4)cc(OC)c1O (stereo not given in full)
TGI (HT29 colon): 7.81 µM
GI50 (MOLT-4 leukemia): 0.0342 µM
TGI (MOLT-4 leukemia): 0.544 µM and 0.442 µM
TGI (OVCAR-3 ovarian): 17.3 µM
TGI (PC-3 prostate): > 100 µM
GI50 (RPMI-8226 leukemia): 0.256 µM
TGI (RPMI-8226 leukemia): 7.22 µM
GI50 (SF-268 CNS): 0.914 µM
TGI (SF-268 CNS): 39.5 µM
TGI (SF-295 CNS): 4.85 µM
TGI (SK-MEL-2 melanoma): 10.7 µM
GI50 (SK-MEL-5 melanoma): 0.74 µM
TGI (SK-MEL-5 melanoma): 3.94 µM
GI50 (SR leukemia): 0.045 µM
TGI (SR leukemia): 0.802 µM and 2.18 µM

Cc1c(Cl)cccc1NC(=O)c1sc2nc3c(cc2c1N)C(=O)CCC3
GI50 (HT29 colon): 0.0445 µM
TGI (HT29 colon): > 33.4 µM
GI50 (MOLT-4 leukemia): 0.466 µM
TGI (MOLT-4 leukemia): > 100 µM
GI50 (OVCAR-3 ovarian): 0.048 µM
TGI (OVCAR-3 ovarian): 0.53 µM
GI50 (PC-3 prostate): 0.0517 µM
TGI (PC-3 prostate): > 52.2 µM
GI50 (RPMI-8226 leukemia): 0.234 µM
TGI (RPMI-8226 leukemia): > 55.4 µM
GI50 (SF-268 CNS): 0.206 µM
TGI (SF-268 CNS): > 100 µM
GI50 (SF-295 CNS): 0.0429 µM
TGI (SF-295 CNS): > 100 µM
GI50 (SK-MEL-2 melanoma): 0.044 µM
TGI (SK-MEL-2 melanoma): > 56 µM
GI50 (SK-MEL-5 melanoma): 0.13 µM
TGI (SK-MEL-5 melanoma): 2.78 µM
GI50 (SR leukemia): 0.0725 µM
TGI (SR leukemia): > 100 µM

COc1cc2c(NC3CCN(C(C)C)CC3)nc(C3CCCCC3)nc2cc1OCCCN1CCCC1
GI50 (HT29 colon): 1.49 µM
TGI (HT29 colon): 3.86 µM
GI50 (MOLT-4 leukemia): 3.38 µM
TGI (MOLT-4 leukemia): 11.6 µM
GI50 (OVCAR-3 ovarian): 6.98 µM
TGI (OVCAR-3 ovarian): 20.4 µM
GI50 (PC-3 prostate): 7.09 µM
TGI (PC-3 prostate): 22.4 µM
GI50 (RPMI-8226 leukemia): 2.42 µM
TGI (RPMI-8226 leukemia): 7.75 µM
GI50 (SF-268 CNS): 3.37 µM
TGI (SF-268 CNS): 14.1 µM
GI50 (SF-295 CNS): 2.52 µM
TGI (SF-295 CNS): 6.55 µM
GI50 (SK-MEL-2 melanoma): 2.18 µM
TGI (SK-MEL-2 melanoma): 4.59 µM
GI50 (SK-MEL-5 melanoma): 1.68 µM
TGI (SK-MEL-5 melanoma): 3.11 µM
GI50 (SR leukemia): 3.25 µM
TGI (SR leukemia): 10.2 µM

O=C(N/N=C/c1cc(Cl)ccc1O)c1ccccc1Nc1ccnc(C(F)(F)F)c1
GI50 (HT29 colon): 1.95 µM
TGI (HT29 colon): 18.3 µM
GI50 (MOLT-4 leukemia): 0.241 µM
TGI (MOLT-4 leukemia): 6.27 µM
GI50 (OVCAR-3 ovarian): 0.472 µM
TGI (OVCAR-3 ovarian): 9.86 µM
GI50 (PC-3 prostate): 1.01 µM
TGI (PC-3 prostate): 35.6 µM
GI50 (RPMI-8226 leukemia): 0.174 µM
TGI (RPMI-8226 leukemia): 1.2 µM
GI50 (SF-268 CNS): 0.37 µM
TGI (SF-268 CNS): 14.7 µM
GI50 (SF-295 CNS): 0.613 µM
TGI (SF-295 CNS): 13.2 µM
GI50 (SK-MEL-2 melanoma): 2.71 µM
TGI (SK-MEL-2 melanoma): 19.9 µM
GI50 (SK-MEL-5 melanoma): 0.57 µM
TGI (SK-MEL-5 melanoma): 5.33 µM
GI50 (SR leukemia): 0.246 µM
TGI (SR leukemia): 1.76 µM

Cn1c2c(c3ccccc3c1=O)C(=O)c1ccccc1-2
TGI (HT29 colon): > 100 µM
TGI (MOLT-4 leukemia): > 100 µM
TGI (OVCAR-3 ovarian): > 100 µM
TGI (PC-3 prostate): > 100 µM
TGI (RPMI-8226 leukemia): > 100 µM
TGI (SF-268 CNS): > 100 µM
TGI (SF-295 CNS): > 100 µM
TGI (SK-MEL-2 melanoma): > 100 µM
TGI (SK-MEL-5 melanoma): > 100 µM
TGI (SR leukemia): > 100 µM
